Experimental data: PubChem BioAssay AID330 (DTP/NCI, 2004)
Where “and” joins values, the source holds several entries; their conditions need not be identical. Equal entries are not always repeated. Toxic doses and inconclusive results are not listed. Rule for the calls: active = survival T/C of 150% or more; inactive = T/C below 125% in these data.

System: P388 leukemia ip, CD2F1 mice, survival T/C
Test: NCI In Vivo Anticancer Drug Screen. Data for tumor model P388 Leukemia (intraperitoneal) in CD2F1 (CDF1) mice
Conditions: endpoint: median survival time, higher = longer survival
Summary of the method: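 Mice carrying the transplanted tumor received test compound or vehicle. Survival was recorded in each group, and the value is the treated-group measurement divided by that of the vehicle-treated control group.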

[1] = dose: 50.0 mg/kg/injection, schedule: Q01DX009 (ip), vehicle: saline with Tween-80
[2] = dose: 100.0 mg/kg/injection, schedule: Q01DX009 (ip), vehicle: saline with Tween-80
[3] = dose: 200.0 mg/kg/injection, schedule: Q01DX009 (ip), vehicle: saline with Tween-80
[4] = dose: 100.0 mg/kg/injection, schedule: Q01DX009 (ip), vehicle: Klucel (hydroxypropylcellulose) (HPC)

Measured: T/C

CC[C@@]1(O)C[C@H](OC2CC(N(C)C)C(OC3CC(O)C(OC4CCC(=O)C(C)O4)C(C)O3)C(C)O2)c2c(cc3c(c2O)C(=O)c2c(O)cccc2C3=O)[C@H]1C(=O)OC (stereo not given in full)
active: dose: 1.0 mg/kg/injection, schedule: Q03HX024 (ip), vehicle: saline 167 % of control | dose: 2.0 mg/kg/injection, schedule: Q01DX005 (ip), vehicle: saline 167 % of control | dose: 2.0 mg/kg/injection, schedule: Q01DX009 (ip), vehicle: saline 168 % of control | dose: 2.5 mg/kg/injection, schedule: Q01DX009 (ip), vehicle: saline 180 % of control | dose: 4.0 mg/kg/injection, schedule: Q01DX005 (ip), vehicle: saline 189 % of control | dose: 4.0 mg/kg/injection, schedule: Q01DX005 (iv), vehicle: saline 162 % of control | dose: 4.0 mg/kg/injection, schedule: Q01DX009 (sc), vehicle: saline 153 % of control | dose: 4.0 mg/kg/injection, schedule: Q03HX008 (ip), vehicle: saline 173 % of control | dose: 4.32 mg/kg/injection, schedule: Q04DX002 (ip), vehicle: saline 151 % of control | dose: 5.4 mg/kg/injection, schedule: Q04DX003 (ip), vehicle: saline 159 % of control | dose: 6.7 mg/kg/injection, schedule: Q04DX003 (ip), vehicle: water 154 % of control | dose: 7.2 mg/kg/injection, schedule: Q04DX002 (ip), vehicle: saline 161 % of control | dose: 7.2 mg/kg/injection, schedule: Q04DX003 (ip), vehicle: saline 175 % of control | dose: 8.0 mg/kg/injection, schedule: Q01DX009 (oral), vehicle: saline 153 % of control | dose: 8.0 mg/kg/injection, schedule: Q04DX003 (ip), vehicle: clinical formulation 183 % of control | dose: 8.0 mg/kg/injection, schedule: Q04DX003 (ip), vehicle: saline 172 % of control and 176 % of control | dose: 9.0 mg/kg/injection, schedule: Q04DX003 (ip), vehicle: saline 198 % of control | dose: 10.0 mg/kg/injection, schedule: Q04DX003 (ip), vehicle: water 170 % of control | dose: 12.0 mg/kg/injection, schedule: Q04DX002 (ip), vehicle: saline 166 % of control | dose: 15.0 mg/kg/injection, schedule: Q04DX003 (ip), vehicle: water 187 % of control | dose: 16.0 mg/kg/injection, schedule: Q01DX001 (ip), vehicle: saline 153 % of control | dose: 16.0 mg/kg/injection, schedule: Q04DX003 (ip), vehicle: Klucel (hydroxypropylcellulose) (HPC) 154 % of control | dose: 32.0 mg/kg/injection, schedule: Q01DX001 (ip), vehicle: saline 180 % of control | dose: 32.0 mg/kg/injection, schedule: Q01DX001 (iv), vehicle: saline 159 % of control
inactive: dose: 0.5 mg/kg/injection, schedule: Q03HX008 (ip), vehicle: saline 120 % of control | dose: 1.0 mg/kg/injection, schedule: Q01DX005 (iv), vehicle: saline 108 % of control | dose: 1.0 mg/kg/injection, schedule: Q01DX009 (oral), vehicle: saline 98 % of control | dose: 1.0 mg/kg/injection, schedule: Q01DX009 (sc), vehicle: saline 115 % of control | dose: 1.0 mg/kg/injection, schedule: Q04DX003 (ip), vehicle: saline 103 % of control | dose: 1.94 mg/kg/injection, schedule: Q04DX003 (ip), vehicle: clinical formulation 96 % of control | dose: 2.0 mg/kg/injection, schedule: Q01DX001 (iv), vehicle: saline 105 % of control | dose: 2.0 mg/kg/injection, schedule: Q01DX005 (iv), vehicle: saline 120 % of control | dose: 2.0 mg/kg/injection, schedule: Q01DX009 (oral), vehicle: saline 115 % of control | dose: 2.0 mg/kg/injection, schedule: Q04DX003 (ip), vehicle: clinical formulation 117 % of control | dose: 2.0 mg/kg/injection, schedule: Q04DX003 (ip), vehicle: saline 116 % of control and 120 % of control | dose: 2.59 mg/kg/injection, schedule: Q04DX002 (ip), vehicle: saline 114 % of control | dose: 4.0 mg/kg/injection, schedule: Q01DX001 (iv), vehicle: saline 116 % of control | dose: 4.0 mg/kg/injection, schedule: Q01DX009 (ip), vehicle: saline 99 % of control | dose: 4.0 mg/kg/injection, schedule: Q04DX003 (ip), vehicle: Klucel (hydroxypropylcellulose) (HPC) 122 % of control | dose: 5.4 mg/kg/injection, schedule: Q04DX003 (ip), vehicle: clinical formulation 113 % of control | dose: 8.0 mg/kg/injection, schedule: Q01DX001 (oral), vehicle: saline 110 % of control | dose: 8.0 mg/kg/injection, schedule: Q01DX009 (sc), vehicle: saline 95 % of control | dose: 9.0 mg/kg/injection, schedule: Q04DX003 (ip), vehicle: clinical formulation 114 % of control | dose: 15.0 mg/kg/injection, schedule: Q04DX003 (ip), vehicle: saline 95 % of control | dose: 16.0 mg/kg/injection, schedule: Q01DX001 (oral), vehicle: saline 116 % of control | dose: 16.0 mg/kg/injection, schedule: Q04DX003 (ip), vehicle: saline 117 % of control

COC(=O)C(NC(N)=O)SC (stereo not given)
inactive: dose: 50.0 mg/kg/injection, schedule: Q04DX003 (ip), vehicle: saline with Tween-80 96 % of control | dose: 100.0 mg/kg/injection, schedule: Q04DX003 (ip), vehicle: saline with Tween-80 100 % of control | dose: 200.0 mg/kg/injection, schedule: Q04DX003 (ip), vehicle: saline with Tween-80 99 % of control

N#Cc1ccc[nH]c1=S
inactive: [1] 95 % of control | [2] 102 % of control | [3] 104 % of control

C1CCNCC1.CC(=O)[CH-]C(=O)c1ccccc1.CC(=O)[CH-]C(=O)c1ccccc1.CC(=O)[CH-]C(=O)c1ccccc1.CC(=O)[CH-]C(=O)c1ccccc1.[Eu+3]
inactive: [4] 98 % of control

CC(=O)OC1CC2CCC1(/C=C/C(=O)c1ccccc1)C2 (stereo not given)
inactive: [1] 100 % of control | [2] 100 % of control | [3] 113 % of control

Cn1cc(NC(=O)c2cc(NC(=O)c3cc(NC=O)cn3C)cn2C)cc1C(=O)O
inactive: dose: 12.5 mg/kg/injection, schedule: Q01DX005 (ip), vehicle: Klucel (hydroxypropylcellulose) (HPC) 100 % of control | dose: 25.0 mg/kg/injection, schedule: Q01DX005 (ip), vehicle: Klucel (hydroxypropylcellulose) (HPC) 100 % of control | dose: 50.0 mg/kg/injection, schedule: Q01DX005 (ip), vehicle: Klucel (hydroxypropylcellulose) (HPC) 107 % of control

CC1=C(C)C(=O)C2=C(OCCCO2)C1=O
inactive: dose: 15.0 mg/kg/injection, schedule: Q01DX005 (ip), vehicle: Klucel (hydroxypropylcellulose) (HPC) 98 % of control | dose: 30.0 mg/kg/injection, schedule: Q01DX005 (ip), vehicle: Klucel (hydroxypropylcellulose) (HPC) 96 % of control | dose: 60.0 mg/kg/injection, schedule: Q01DX005 (ip), vehicle: Klucel (hydroxypropylcellulose) (HPC) 98 % of control

CCCCCC(=O)NC(Cc1ccc(N(CCCl)CCCl)cc1)C(=O)O (stereo not given)
active: dose: 21.2 mg/kg/injection, schedule: Q03HX008 (ip), vehicle: saline 150 % of control
inactive: dose: 1.3 mg/kg/injection, schedule: Q03HX008 (ip), vehicle: saline 100 % of control | dose: 1.32 mg/kg/injection, schedule: Q01DX009 (ip), vehicle: saline 109 % of control | dose: 2.6 mg/kg/injection, schedule: Q03HX008 (ip), vehicle: saline 110 % of control | dose: 2.65 mg/kg/injection, schedule: Q01DX009 (ip), vehicle: saline 113 % of control | dose: 5.3 mg/kg/injection, schedule: Q03HX008 (ip), vehicle: saline 120 % of control

Cc1cc(=O)n2c(nc3ccccc32)s1
inactive: dose: 50.0 mg/kg/injection, schedule: Q01DX009 (ip), vehicle: Klucel (hydroxypropylcellulose) (HPC) 109 % of control | [4] 96 % of control | dose: 200.0 mg/kg/injection, schedule: Q01DX009 (ip), vehicle: Klucel (hydroxypropylcellulose) (HPC) 109 % of control

NC(=O)Oc1cccc(OC(N)=O)c1
inactive: dose: 25.0 mg/kg/injection, schedule: Q01DX009 (ip), vehicle: other 103 % of control | dose: 50.0 mg/kg/injection, schedule: Q01DX009 (ip), vehicle: other 111 % of control | dose: 50.0 mg/kg/injection, schedule: Q04DX003 (ip), vehicle: other 95 % of control | dose: 100.0 mg/kg/injection, schedule: Q01DX009 (ip), vehicle: other 113 % of control | dose: 200.0 mg/kg/injection, schedule: Q01DX009 (ip), vehicle: other 113 % of control | dose: 200.0 mg/kg/injection, schedule: Q04DX003 (ip), vehicle: other 98 % of control

O=C(N/N=C/c1cc(Br)cc(Br)c1[O-])c1ccccc1.O=C(N/N=C/c1cc(Br)cc(Br)c1[O-])c1ccccc1.[Mn+2]
inactive: dose: 100.0 mg/kg/injection, schedule: Q01DX001 (ip), vehicle: saline with Tween-80 95 % of control | dose: 200.0 mg/kg/injection, schedule: Q01DX001 (ip), vehicle: saline with Tween-80 101 % of control | dose: 400.0 mg/kg/injection, schedule: Q01DX001 (ip), vehicle: saline with Tween-80 98 % of control
